Assay results reported in patent US8022206B2 (OSI Pharmaceuticals, LLC, priority 2008, dated 2011).

Key:
RON (human) = RON (human) (Homo sapiens, UniProt Q04912); assay: RON (human) AlphaScreen kinase assay, Km of ATP; assay type: biochemical; conditions: AlphaScreen, Km of ATP; read-out: RON biochemical IC50
In short: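 Reaction was started with enzyme and run 30 min at RT. PT66 donor/acceptor beads in an EDTA-containing Tris pH 7.5 buffer were then added, and the signal was read after 1 h.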

MET (human) = MET (human) (Homo sapiens, UniProt P08581); assay: MET (human) AlphaScreen kinase assay, Km of ATP; assay type: biochemical; conditions: AlphaScreen, Km of ATP; read-out: Met biochemical IC50
Sequence of MET (human) (P08581 25-1390): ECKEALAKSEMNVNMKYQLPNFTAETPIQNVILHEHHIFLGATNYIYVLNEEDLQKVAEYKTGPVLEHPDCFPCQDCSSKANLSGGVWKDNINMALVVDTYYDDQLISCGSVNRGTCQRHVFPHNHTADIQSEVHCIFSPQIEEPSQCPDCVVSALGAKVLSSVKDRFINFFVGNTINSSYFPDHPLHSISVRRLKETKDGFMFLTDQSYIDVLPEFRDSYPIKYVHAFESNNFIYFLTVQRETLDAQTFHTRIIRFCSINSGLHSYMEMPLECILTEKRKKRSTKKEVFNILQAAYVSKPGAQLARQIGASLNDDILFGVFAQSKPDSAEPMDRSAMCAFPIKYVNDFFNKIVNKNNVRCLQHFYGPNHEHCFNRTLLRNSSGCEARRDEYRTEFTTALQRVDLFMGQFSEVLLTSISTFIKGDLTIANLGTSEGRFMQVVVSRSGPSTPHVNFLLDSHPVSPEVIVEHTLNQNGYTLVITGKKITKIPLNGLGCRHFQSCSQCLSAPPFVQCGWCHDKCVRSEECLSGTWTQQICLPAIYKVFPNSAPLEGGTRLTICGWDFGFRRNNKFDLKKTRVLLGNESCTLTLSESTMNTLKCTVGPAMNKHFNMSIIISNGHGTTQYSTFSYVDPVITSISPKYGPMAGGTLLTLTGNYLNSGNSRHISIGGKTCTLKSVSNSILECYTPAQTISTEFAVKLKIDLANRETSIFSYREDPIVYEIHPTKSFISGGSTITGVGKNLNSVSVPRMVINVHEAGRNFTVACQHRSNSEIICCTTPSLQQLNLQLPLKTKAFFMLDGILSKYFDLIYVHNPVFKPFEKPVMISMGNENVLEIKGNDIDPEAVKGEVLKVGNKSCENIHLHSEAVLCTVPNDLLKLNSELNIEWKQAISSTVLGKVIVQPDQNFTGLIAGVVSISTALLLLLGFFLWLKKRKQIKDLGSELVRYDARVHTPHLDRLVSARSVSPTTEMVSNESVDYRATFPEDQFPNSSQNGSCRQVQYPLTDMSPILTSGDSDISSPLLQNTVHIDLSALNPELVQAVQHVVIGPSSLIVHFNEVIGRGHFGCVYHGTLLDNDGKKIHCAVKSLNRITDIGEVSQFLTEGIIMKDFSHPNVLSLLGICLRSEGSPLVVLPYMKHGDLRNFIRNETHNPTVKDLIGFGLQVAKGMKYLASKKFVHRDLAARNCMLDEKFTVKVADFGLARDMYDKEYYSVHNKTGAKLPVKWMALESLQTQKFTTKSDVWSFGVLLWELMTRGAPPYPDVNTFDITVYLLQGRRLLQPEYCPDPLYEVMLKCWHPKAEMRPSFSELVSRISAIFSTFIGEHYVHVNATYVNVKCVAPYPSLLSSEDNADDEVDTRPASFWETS
In short: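 Human MET at lot-optimised concentration in 50 mM Tris pH 7.4 buffer with 1 mM DTT, compound at 1% DMSO final; enzyme starts the reaction, 60 min at RT.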

Sequence of RON (human) (Q04912 25-1400): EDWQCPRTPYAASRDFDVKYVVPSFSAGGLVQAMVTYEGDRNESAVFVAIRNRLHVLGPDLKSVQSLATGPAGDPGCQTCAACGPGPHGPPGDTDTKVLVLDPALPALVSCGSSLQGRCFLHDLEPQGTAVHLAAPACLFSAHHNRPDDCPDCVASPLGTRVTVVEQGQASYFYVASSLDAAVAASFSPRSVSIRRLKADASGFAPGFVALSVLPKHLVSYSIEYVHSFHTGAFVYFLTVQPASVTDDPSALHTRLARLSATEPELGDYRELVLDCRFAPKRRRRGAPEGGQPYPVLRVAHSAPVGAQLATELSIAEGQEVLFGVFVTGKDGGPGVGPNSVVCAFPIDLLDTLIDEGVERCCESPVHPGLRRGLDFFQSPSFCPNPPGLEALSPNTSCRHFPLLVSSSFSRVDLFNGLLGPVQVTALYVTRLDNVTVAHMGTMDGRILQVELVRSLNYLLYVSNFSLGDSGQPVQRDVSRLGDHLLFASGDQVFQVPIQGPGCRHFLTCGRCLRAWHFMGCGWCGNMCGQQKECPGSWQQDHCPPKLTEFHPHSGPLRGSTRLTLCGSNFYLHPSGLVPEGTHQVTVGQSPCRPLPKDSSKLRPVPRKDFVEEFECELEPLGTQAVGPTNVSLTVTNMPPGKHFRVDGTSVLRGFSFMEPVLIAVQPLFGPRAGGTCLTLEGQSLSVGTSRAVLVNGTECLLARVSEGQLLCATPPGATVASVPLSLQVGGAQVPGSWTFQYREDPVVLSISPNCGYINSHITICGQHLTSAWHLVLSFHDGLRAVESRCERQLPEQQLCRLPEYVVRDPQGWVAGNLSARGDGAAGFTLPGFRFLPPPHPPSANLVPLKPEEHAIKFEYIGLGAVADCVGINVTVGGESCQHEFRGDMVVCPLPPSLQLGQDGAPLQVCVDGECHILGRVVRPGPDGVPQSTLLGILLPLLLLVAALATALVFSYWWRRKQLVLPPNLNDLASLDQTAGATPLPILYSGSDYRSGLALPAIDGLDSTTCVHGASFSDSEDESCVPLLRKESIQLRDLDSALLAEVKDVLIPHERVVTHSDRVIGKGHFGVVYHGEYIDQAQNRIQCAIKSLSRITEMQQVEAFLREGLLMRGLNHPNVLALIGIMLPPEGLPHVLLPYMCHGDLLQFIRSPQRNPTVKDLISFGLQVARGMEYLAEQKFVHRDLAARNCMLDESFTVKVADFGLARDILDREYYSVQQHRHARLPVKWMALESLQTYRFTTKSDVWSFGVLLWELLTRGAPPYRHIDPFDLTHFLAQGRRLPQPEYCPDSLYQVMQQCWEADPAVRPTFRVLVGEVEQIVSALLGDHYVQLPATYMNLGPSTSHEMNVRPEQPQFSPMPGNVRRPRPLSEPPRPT

Compound | IC50 (RON (human)) | IC50 (MET (human))
COCCNC(=O)c1coc2c(O[C@H](C)c3c(Cl)ccc(F)c3Cl)c(N)ncc12 [Example 192, 6-Amino-7-[(R)-1-(2,6-dichloro-3-fluorophenyl)ethoxy]furo[3,2-c]pyridine-3-carboxylic acid (3-methoxyethyl)amide] | 500 to 5000 nM | < 500 nM
C#CCC(Oc1c(N)ncc2c(-c3cnn(C4CCNCC4)c3)coc12)c1c(Cl)cccc1Cl (stereo not drawn) [Example 341, 7-[1-(2,6-Dichlorophenyl)but-3-ynyloxy]-3-(1-piperidin-4-yl-1H-pyrazol-4-yl)-furo[3,2-c]pyridin-6-ylamine] | < 500 nM | < 500 nM
C[C@@H](Oc1c(N)ncc2c(-c3ccc(C(N)=O)s3)coc12)c1c(Cl)ccc(F)c1Cl [Example 209, 5-{6-Amino-7-[(R)-1-(2,6-dichloro-3-fluorophenyl)ethoxy]-furo[3,2-c]pyridin-3-yl}-thiophene-2-carboxamide] | 500 to 5000 nM | 500 to 5000 nM
C[C@@H](Oc1c(N)ncc2c(-c3ccc(N4CCN(C)CC4)cc3)coc12)c1c(Cl)ccc(F)c1Cl [Example 86, 7-[(R)-1-(2,6-Dichloro-3-fluor-phenyl)ethoxy]-3-[4-(4-methylpiperazin-1-yl)-phenyl]furo[3,2-c]pyridin-6-ylamine] | < 500 nM | < 500 nM
C[C@@H](Oc1c(N)ncc2c(-c3ccc(C(=O)NCCN4CCOCC4)cc3)coc12)c1c(Cl)ccc(F)c1Cl [Example 100, 4-{6-Amino-7-[(R)-1-(2,6-dichloro-3-fluorophenyl)ethoxy]-furo[3,2-c]pyridin-3-yl}-N-(2-morpholin-4-ylethyl)benzamide] | 500 to 5000 nM | 500 to 5000 nM
CC(O)C(=O)N1CC=C(c2coc3c(O[C@H](C)c4c(Cl)ccc(F)c4Cl)c(N)ncc23)CC1 (stereo partly drawn) [Example 229, 1-(4-{6-Amino-7-[(R)-1-(2,6-dichloro-3-fluorophenyl)ethoxy]-furo[3,2-c]pyridin-3-yl}-3,6-dihydro-2H-pyridin-1-yl)-2-hydroxypropan-1-one] | < 500 nM | < 500 nM
CC(Cc1ccccc1F)Oc1c(N)ncc2c(-c3cnn(C4CCNCC4)c3)coc12 (stereo not drawn) [Example 423, 7-[2-(2-Fluorophenyl)-1-methylethoxy]-3-(1-piperidin-4-yl-1H-pyrazol-4-yl)furo[3,2-c]pyridin-6-ylamine] | 500 to 5000 nM | < 500 nM
C[C@@H](Oc1c(N)ncc2c(-c3ccc(C(=O)O)s3)coc12)c1c(Cl)ccc(F)c1Cl [Example 206, 5-{6-Amino-7-[(R)-1-(2,6-dichloro-3-fluorophenyl)ethoxy]-furo[3,2-c]pyridin-3-yl}-thiophene-2-carboxylic acid] | 500 to 5000 nM | < 500 nM
C[C@@H](Oc1c(N)ncc2c(-c3cccc(NS(=O)(=O)c4cccs4)c3)coc12)c1c(Cl)ccc(F)c1Cl [Example 247, Thiophene-2-sulfonic acid (3-{6-amino-7-[(R)-1-(2,6-dichloro-3-fluorophenyl)-ethoxy]-furo[3,2-c]pyridin-3-yl}phenyl)amide] | 5000 to 20000 nM | 500 to 5000 nM
CC(Oc1c(N)ncc2c(-c3cnn(C4CCNCC4)c3)coc12)c1ccc2ccccc2c1 (stereo not drawn) [Example 432, 7-(1-Naphthalen-2-ylethoxy)-3-(1-piperidin-4-yl-1H-pyrazol-4-yl)furo[3,2-c]pyridin-6-ylamine] | 500 to 5000 nM | 500 to 5000 nM
CC(C)NC(=O)c1cc(-c2coc3c(O[C@H](C)c4c(Cl)ccc(F)c4Cl)c(N)ncc23)cs1 [Example 312, 4-{6-Amino-7-[(R)-1-(2,6-dichloro-3-fluorophenyl)ethoxy]furo[3,2-c]pyridin-3-yl}thiophene-2-carboxylic acid isopropylamide] | 500 to 5000 nM | < 500 nM
Cc1ccsc1-c1coc2c(O[C@H](C)c3c(Cl)ccc(F)c3Cl)c(N)ncc12 [Example 116, 7-[(R)-1-(2,6-Dichloro-3-fluorophenyl)ethoxy]-3-(3-methylthiophen-2-yl)furo[3,2-c]pyridin-6-ylamine] | 5000 to 20000 nM | 500 to 5000 nM
C[C@@H](Oc1c(N)ncc2c(Br)coc12)c1c(Cl)ccc(F)c1Cl [Example 2, 3-Bromo-7-[(R)-1-(2,6-dichloro-3-fluorophenyl)-ethoxy]-furo[3,2-c]pyridin-6-ylamine] | 5000 to 20000 nM | 500 to 5000 nM
COc1cccc(C(C)Oc2c(N)ncc3c(-c4cnn(C5CCNCC5)c4)coc23)c1 (stereo not drawn) [Example 345, 7-[1-(3-Methoxyphenyl)-ethoxy]-3-(1-piperidin-4-yl-1H-pyrazol-4-yl)furo[3,2-c]pyridin-6-ylamine] | 500 to 5000 nM | 500 to 5000 nM
C[C@@H](Oc1c(N)ncc2c(C3=CCN(/C(=N\C#N)N(C)C)CC3)coc12)c1c(Cl)ccc(F)c1Cl [Example 196, 4-{6-Amino-7-[(R)-1-(2,6-dichloro-3-fluorophenyl)ethoxy]-furo[3,2-c]pyridin-3-yl}-N,N-cyano-N,N-dimethyl-3,6-dihydro-2H-pyridine-1-carboxamidine] | 500 to 5000 nM | 500 to 5000 nM
C[C@H](Oc1c(N)ncc2c(-c3cnn(C4CCNCC4)c3)coc12)c1nnc2ccc(-c3ccccc3)nn12 [Example 478, 7-[(1S)-1-(6-phenyl[1,2,4]triazolo[4,3-b]pyridazin-3-yl)ethoxy]-3-[1-(piperidin-4-yl)-1H-pyrazol-4-yl]furo[3,2-c]pyridin-6-amine] | > 20000 nM | 500 to 5000 nM

The remaining lines, values ahead:

IC50 (RON (human)) | IC50 (MET (human)) | Compound
< 500 nM | < 500 nM | C[C@@H](Oc1c(N)ncc2c(-c3csc(CN4CCC(O)CC4)c3)coc12)c1c(Cl)ccc(F)c1Cl [Example 306, 1-(4-{6-Amino-7-[(R)-1-(2,6-dichloro-3-fluorophenyl)ethoxy]furo[3,2-c]pyridin-3-yl}thiophen-2-ylmethyl)piperidin-4-ol]
500 to 5000 nM | 500 to 5000 nM | C[C@@H](Oc1c(N)ncc2c(-c3ccc(CO)s3)coc12)c1c(Cl)ccc(F)c1Cl [Example 212, (5-{6-Amino-7-[(R)-1-(2,6-dichloro-3-fluorophenyl)ethoxy]-furo[3,2-c]pyridin-3-yl}-thiophen-2-yl)methanol]
500 to 5000 nM | < 500 nM | Nc1ncc2c(-c3cnn(C4CCNCC4)c3)coc2c1O[C@H](c1ccccc1)C(F)(F)F [Example 392, 3-(1-Piperidin-4-yl-1H-pyrazol-4-yl)-7-((R)-2,2,2-trifluoro-1-phenylethoxy)furo[3,2-c]pyridin-6-ylamine]
< 500 nM | < 500 nM | Cc1ccc(-c2coc3c(O[C@H](C)c4c(Cl)ccc(F)c4Cl)c(N)ncc23)s1 [Example 95, 7-[(R)-1-(2,6-Dichloro-3-fluorophenyl)ethoxy]-3-(5-methylthiophen-2-yl)furo[3,2-c]pyridin-6-ylamine]
< 500 nM | < 500 nM | C[C@@H](Oc1c(N)ncc2c(-c3cnn(C4CCNCC4)c3)c(C#CCCO)oc12)c1c(Cl)ccc(F)c1Cl [Example 172, 4-[6-Amino-7-[(R)-1-(2,6-dichloro-3-fluorophenyl)ethoxy]-3-(1-piperidin-4-yl-1H-pyrazol-4-yl)-furo[3,2-c]pyridin-2-yl]-but-3-yn-1-ol]
5000 to 20000 nM | 500 to 5000 nM | C[C@@H](Oc1c(N)ncc2c(-c3ccc([N+](=O)[O-])nc3)coc12)c1c(Cl)ccc(F)c1Cl [Example 119, 7-[(R)-1-(2,6-Dichloro-3-fluorophenyl)ethoxy]-3-(6-nitropyridin-3-yl)furo[3,2-c]pyridin-6-ylamine]
5000 to 20000 nM | 500 to 5000 nM | C[C@@H](Oc1c(N)ncc2c(-c3ccnc4ccccc34)coc12)c1c(Cl)ccc(F)c1Cl [Example 92, 7-[(R)-1-(2,6-Dichloro-3-fluorophenyl)ethoxy]-3-quinolin-4-ylfuro[3,2-c]pyridin-6-ylamine]
500 to 5000 nM | 500 to 5000 nM | C[C@@H](Oc1c(N)ncc2c(-c3nccs3)coc12)c1c(Cl)ccc(F)c1Cl [Example 135, 7-[(R)-1-(2,6-Dichloro-3-fluorophenyl)-ethoxy]-3-thiazol-2-ylfuro[3,2-c]pyridin-6-ylamine]
500 to 5000 nM | 500 to 5000 nM | CC(=O)c1ccc(-c2coc3c(O[C@H](C)c4c(Cl)ccc(F)c4Cl)c(N)ncc23)s1 [Example 114, 1-(5-{6-Amino-7-[(R)-1-(2,6-dichloro-3-fluorophenyl)ethoxy]furo[3,2-c]pyridin-3-yl}thiophen-2-yl)ethanone]
500 to 5000 nM | < 500 nM | C[C@@H](Oc1c(N)ncc2c(C(=O)NC3CCNCC3)coc12)c1c(Cl)ccc(F)c1Cl [Example 182, 6-Amino-7-[(R)-1-(2,6-dichloro-3-fluorophenyl)ethoxy]furo[3,2-c]pyridine-3-carboxylic acid piperidin-4-ylamide]
500 to 5000 nM | 500 to 5000 nM | CCS(=O)(=O)N1CC=C(c2coc3c(O[C@H](C)c4c(Cl)ccc(F)c4Cl)c(N)ncc23)CC1 [Example 47, 7-[(R)-1-(2,6-Dichloro-3-fluorophenyl)-ethoxy]-3-(1-ethanesulfonyl-1,2,3,6-tetrahydropyridin-4-yl)-furo[3,2-c]pyridin-6-ylamine]
500 to 5000 nM | 500 to 5000 nM | C[C@@H](Oc1c(N)ncc2c(-c3ccc(C(=O)N4CCCCC4)cc3)coc12)c1c(Cl)ccc(F)c1Cl [Example 290, (4-{6-Amino-7-[(R)-1-(2,6-dichloro-3-fluorophenyl)ethoxy]furo[3,2-c]pyridin-3-yl}phenyl)piperidin-1-ylmethanone]
500 to 5000 nM | 500 to 5000 nM | CC(Oc1c(N)ncc2c(-c3cnn(C4CCNCC4)c3)coc12)c1cccnc1 (stereo not drawn) [Example 398, 3-(1-Piperidin-4-yl-1H-pyrazol-4-yl)-7-(1-pyridin-3-ylethoxy)furo[3,2-c]pyridin-6-ylamine]
500 to 5000 nM | 500 to 5000 nM | C[C@@H](Oc1c(N)ncc2c(-c3cccc(C(N)=O)c3)coc12)c1c(Cl)ccc(F)c1Cl [Example 70, 3-{6-Amino-7-[(R)-1-(2,6-dichloro-3-fluorophenyl)ethoxy]-furo[3,2-c]pyridin-3-yl}benzamide]
